system: CAL51 cell proliferation; assay: Cell Titer Glo Proliferation Assay (CAL51); type: cell-based, human; conditions: Homo sapiens, CAL-51; CAL51 cell proliferation, 72 h, Cell Titer Glo luminescence; read-out: Act. Level
Protocol: Cell Titer Glo Proliferation Assay. Triple negative breast cancer cell line CAL51 was purchased from DSMZ. […] Allcell lines were maintained in growth media consisting of 90% high glucose Dulbecco's Modified Eagle Medium or RPMI1640 (Invitrogen), 10% fetal bovine serum (Hyclone), and 2 mM L-glutamine (Invitrogen). […] After overnight culture, compound stock (30 mM) was diluted serially in DMSO, further diluted in growth media, and was added to each well as a 10× concentrated solution in a volume of 11 μL, mixed, and allowed to incubate with cells. The compound vehicle (DMSO) was maintained at a final concentration of 0.2% in all wells. After 72 h, 100 μL of Cell Titer Glo solution (Promega) was added to each well of the 96-well plate. The plate was placed on a shaker for 2 minutes. After 10 minutes incubation, the luminescence signal was detected with Envision microplate reader (Perkin Elmer).

| SMILES | IC50 [nM] |
| --- | --- |
| CNC(=O)c1ccc(Nc2nc(OC3CCCC3)c3c(-c4ccc(OC)cc4)c[nH]c3n2)c(OC)c1 [Example 76, 4-(4-(cyclopentyloxy)-5-(4-methoxyphenyl)-7H-pyrrolo[2,3-d]pyrimidin-2-ylamino)-3-methoxy-N-methylbenzamide] | < 100 |
| CNC(=O)c1ccc(Nc2nc(OC3CCCC3)c3c(-c4ccc(C#N)cc4)c[nH]c3n2)c(OC)c1 [Example 77, 4-(5-(4-cyanophenyl)-4-(cyclopentyloxy)-7H-pyrrolo[2,3-d]pyrimidin-2-ylamino)-3-methoxy-N-methylbenzamide] | 1000 to 10000 |
| CNC(=O)c1ccc(Nc2nc(OC3CCCC3)c3c(-c4ccc5c(ccn5C)c4)c[nH]c3n2)c(OC)c1 [Example 78, 4-(4-(cyclopentyloxy)-5-(1-methyl-1H-indol-5-yl)-7H-pyrrolo[2,3-d]pyrimidin-2-ylamino)-3-methoxy-N-methylbenzamide] | 1000 to 10000 |
| CNC(=O)c1ccc(Nc2nc(OC3CCCC3)c3c(-c4cc[nH]n4)c[nH]c3n2)c(OC)c1 [Example 80, 4-(4-(cyclopentyloxy)-5-(1H-pyrazol-3-yl)-7H-pyrrolo[2,3-d]pyrimidin-2-ylamino)-3-methoxy-N-methylbenzamide] | < 100 |
| CNC(=O)c1ccc(Nc2nc(OC3CCCC3)c3c(-c4ccc5[nH]ccc5c4)c[nH]c3n2)c(OC)c1 [Example 81, 4-(4-(cyclopentyloxy)-5-(1H-indol-5-yl)-7H-pyrrolo[2,3-d]pyrimidin-2-ylamino)-3-methoxy-N-methylbenzamide] | 400 to 1000 |
| CNC(=O)c1ccc(Nc2nc(OC3CCCC3)c3c(-c4cn[nH]c4)c[nH]c3n2)c(OC)c1 [Example 82, 4-(4-(cyclopentyloxy)-5-(1H-pyrazol-4-yl)-7H-pyrrolo[2,3-d]pyrimidin-2-ylamino)-3-methoxy-N-methylbenzamide] | < 100 |
| COc1nc(Nc2ccc(C(=O)N(C)C)cc2Cl)nc2[nH]cc(-c3ccc4[nH]c(C)nc4c3)c12 [Example 83, 3-chloro-4-(4-methoxy-5-(2-methyl-1H-benzo[d]imidazol-5-yl)-7H-pyrrolo[2,3-d]pyrimidin-2-ylamino)-N,N-dimethylbenzamide] | < 100 |
| C[C@@H](O)c1cccc(-c2c[nH]c3nc(Nc4ccc(C(=O)N(C)C)cc4Cl)nc(NC4CCOCC4)c23)c1 [Example 84, (R)-3-chloro-4-(5-(3-(1-hydroxyethyl)phenyl)-4-(tetrahydro-2H-pyrazin-4-ylamino)-7H-pyrrolo [2,3-d]pyrimidin-2-ylamino)-N,N-dimethylbenzamide] | 100 to 400 |
| C[C@H](O)c1cccc(-c2c[nH]c3nc(Nc4ccc(C(=O)N(C)C)cc4Cl)nc(NC4CCOCC4)c23)c1 [Example 85, (S)-3-chloro-4-(5-(3-(1-hydroxy-ethyl)phenyl)-4-(tetrahydro-2H-pyran-4-ylamino)-7H-pyrrolo[2,3-d]pyrimidin-2-ylamino)-N,N-dimethylbenzamide] | < 100 |
| Cc1nc2ccc(-c3c[nH]c4nc(Nc5ccc(C(=O)N6CCOCC6)cc5C)nc(OC5CCCC5)c34)cc2o1 [Example 86, (4-(4-(cyclopentyloxy)-5-(2-methylbenzo[d]oxazol-6-yl)-7H-pyrrolo[2,3-d]pyrimidin-2-ylamino)-3-methylphenyl) (morpholino)methanone] | 100 to 400 |
| COc1nc(Nc2ccc3[nH]ncc3c2)nc2[nH]cc(-c3ccc4nc(C)oc4c3)c12 [Example 87, N-(1H-indazol-5-yl)-4-methoxy-5-(2-methylbenzo[d]oxazol-6-yl)-7H-pyrrolo[2,3-d]pyrimidin-2-amine] | 100 to 400 |
| COc1nc(Nc2ccc(-c3cn[nH]c3)cc2)nc2[nH]cc(-c3ccc4nc(C)oc4c3)c12 [Example 88, N-(4-(1H-pyrazol-4-yl)phenyl)-4-methoxy-5-(2-methylbenzo[d]oxazol-6-yl)-7H-pyrrolo[2,3-d] pyrimidin-2-amine] | 100 to 400 |
| COc1nc(Nc2ccc(C(=O)N(C)C)cc2C)nc2[nH]cc(-c3ccncc3)c12 [Example 89, 4-(4-methoxy-5-(pyridin-4-yl)-7H-pyrrolo[2,3-d]pyrimidin-2-ylamino)-N,N,3-trimethylbenzamide] | 100 to 400 |
| CNC(=O)c1ccc(Nc2nc(OC3CCOCC3)c3c(-c4ccc5nc(C)oc5c4)c[nH]c3n2)c(OC)c1 [Example 90, 3-methoxy-N-methyl-4-(5-(2-methylbenzo[d]oxazol-6-yl)-4-(tetrahydro-2H-pyran-4-yloxy)-7H-pyrrolo[2,3-d]pyrimidin-2-ylamino)benzamide] | < 100 |
| COc1cc(C(=O)N(C)C)ccc1Nc1nc(OC2CCCC2)c2c(-c3ccc4nc(C)oc4c3)c[nH]c2n1 [Example 91, 4-(4-(cyclopentyloxy)-5-(2-methylbenzo[d]oxazol-6-yl)-7H-pyrrolo[2,3-d]pyrimidin-2-ylamino)-3-methoxy-N,N-dimethylbenzamide] | 100 to 400 |
| Cc1nc2ccc(-c3c[nH]c4nc(Nc5ccc(C(=O)N(C)C)cc5C)nc(O[C@H]5CC[C@H](O)CC5)c34)cc2o1 [Example 92, 4-(4-((1r,4r)-4-hydroxycyclo-hexyloxy)-5-(2-methylbenzo[d]oxazol-6-yl)-7H-pyrrolo[2,3-d]pyrimidin-2-ylamino)-N,N,3-trimethylbenzamide] | < 100 |
| Cc1cc(C(=O)N(C)C)ccc1Nc1nc(OC2CCOCC2)c2c(-c3ccncc3)c[nH]c2n1 [Example 93, N,N,3-trimethyl-4-(5-(pyridin-4-yl)-4-(tetrahydro-2H-pyran-4-yloxy)-7H-pyrrolo[2,3-d]pyrimidin-2-ylamino)benzamide] | < 100 |
| CNC(=O)c1ccc(Nc2nc(OC3CCCC3)c3c(-c4ccc5nc(C)oc5c4)c[nH]c3n2)c(C)c1 [Example 94, 4-(4-(cyclopentyloxy)-5-(2-methylbenzo[d]oxazol-6-yl)-7H-pyrrolo[2,3-d]pyrimidin-2-ylamino)-N,3-dimethylbenzamide] | 400 to 1000 |
| Cc1nc2ccc(-c3c[nH]c4nc(Nc5ccc(C(=O)N(C)C)cc5C)nc(OC5CCN(C)CC5)c34)cc2o1 [Example 95, N,N,3-trimethyl-4-(5-(2-methylbenzo[d]oxazol-6-yl)-4-(1-methylpiperidin-4-yloxy)-7H-pyrrolo[2,3-d]pyrimidin-2-ylamino)benzamide] | 400 to 1000 |
| COc1cc(C(=O)N2CCOCC2)ccc1Nc1nc(OC2CCCC2)c2c(-c3ccc4nc(C)oc4c3)c[nH]c2n1 [Example 96, (4-(4-(cyclopentyloxy)-5-(2-methylbenzo[d]oxazol-6-yl)-7H-pyrrolo[2,3-d]pyrimidin-2-ylamino)-3-methoxyphenyl)(morpholino) methanone] | 400 to 1000 |
| Cc1nc2ccc(-c3c[nH]c4nc(Nc5ccc(C(=O)N(C)C)cc5C)nc(OC5CCNCC5)c34)cc2o1 [Example 97, N,N,3-trimethyl-4-(5-(2-methylbenzo[d]oxazol-6-yl)-4-(piperidin-4-yloxy)-7H-pyrrolo [2,3-d]pyrimidin-2-ylamino) benzamide] | 1000 to 10000 |
| Cc1nc2ccc(-c3c[nH]c4nc(Nc5ccc(C(=O)N(C)C)cc5C)nc(O[C@H]5CCOC5)c34)cc2o1 [Example 98, (S)-N,N,3-trimethyl-4-(5-(2-methylbenzo[d]oxazol-6-yl)-4-(tetrahydrofuran-3-yloxy)-7H-pyrrolo[2,3-d]pyrimidin-2-ylamino)benzamide] | < 100 |
| Cc1nc2ccc(-c3c[nH]c4nc(Nc5ccc(C(=O)N(C)C)cc5C)nc(O[C@@H]5CCOC5)c34)cc2o1 [Example 99, (R)-N,N,3-trimethyl-4-(5-(2-methylbenzo[d]oxazol-6-yl)-4-(tetrahydrofuran-3-yloxy)-7H-pyrrolo[2,3-d]pyrimidin-2-ylamino)benzamide] | < 100 |
| COc1cc(C(=O)NCCN)ccc1Nc1nc(OC2CCCC2)c2c(-c3ccc4nc(C)oc4c3)c[nH]c2n1 [Example 100, N-(2-aminoethyl)-4-(4-(cyclopentyl-oxy)-5-(2-methylbenzo[d]oxazol-6-yl)-7H-pyrrolo[2,3-d]pyrimidin-2-ylamino)-3-methoxybenzamide] | < 100 |
| CCOc1ccc(-c2c[nH]c3nc(Nc4ccc(C(=O)NC)cc4OC)nc(OC4CCOCC4)c23)cn1 [Example 102, 4-(5-(6-ethoxypyridin-3-yl)-4-(tetrahydro-2H-pyran-4-yloxy)-7H-pyrrolo[2,3-d]pyrimidin-2-ylamino)-3-methoxy-N-methylbenzamide] | 100 to 400 |
| COc1ccccc1Nc1nc(OC2CCCC2)c2c(-c3ccc4nc(C)oc4c3)c[nH]c2n1 [Example 103, 4-(cyclopentyloxy)-N-(2-methoxyphenyl)-5-(2-methylbenzo[d]oxazol-6-yl)-7H-pyrrolo[2,3-d]pyrimidin-2-amine] | 100 to 400 |
| Cc1nc2ccc(-c3c[nH]c4nc(Nc5ccc(C(=O)N(C)C)cc5C)nc(O[C@H]5CCCOC5)c34)cc2o1 [Example 104, (S)-N,N,3-trimethyl-4-(5-(2-methylbenzo[d]oxazol-6-yl)-4-(tetrahydro-2H-pyran-3-yloxy)-7H-pyrrolo[2,3-d]pyrimidin-2-ylamino)benzamide] | < 100 |
| Cc1cc(C(=O)N(C)C)ccc1Nc1nc(OC2CCOCC2)c2c(-c3cccc(S(C)(=O)=O)c3)c[nH]c2n1 [Example 105, N,N,3-trimethyl-4-(5-(3-(methylsulfonyl)phenyl)-4-(tetrahydro-2H-pyran-4-yloxy)-7H-pyrrolo[2,3-d]pyrimidin-2-ylamino)benzamide] | < 100 |
| CNC(=O)c1ccc(Nc2nc(OC3CCOCC3)c3c(-c4cccc(S(C)(=O)=O)c4)c[nH]c3n2)c(OC)c1 [Example 106, 3-methoxy-N-methyl-4-(5-(3-(methylsulfonyl)phenyl)-4-(tetrahydro-2H-pyran-4-yloxy)-7H-pyrrolo[2,3-d]pyrimidin-2-ylamino)benzamide] | < 100 |

— patent US9346812B2, “Substituted pyrrolopyrimidine compounds, compositions thereof, and methods of treatment therewith” (Signal Pharmaceutical LLC, priority 2013, dated 2016)
